{"source": "patent US20230312542A1", "about": "“HYDROXYPYRROLIDINE DERIVATIVE AND MEDICINAL APPLICATION THEREOF” (MITSUBISHI TANABE PHARMA CORPORATION, priority 2020, published 2023)", "data": [{"target": "VHL (co-expressed with Elongin B and Elongin C) (Homo sapiens (Human), UniProt P40337)", "sequence (P40337 whole entry, looked up)": "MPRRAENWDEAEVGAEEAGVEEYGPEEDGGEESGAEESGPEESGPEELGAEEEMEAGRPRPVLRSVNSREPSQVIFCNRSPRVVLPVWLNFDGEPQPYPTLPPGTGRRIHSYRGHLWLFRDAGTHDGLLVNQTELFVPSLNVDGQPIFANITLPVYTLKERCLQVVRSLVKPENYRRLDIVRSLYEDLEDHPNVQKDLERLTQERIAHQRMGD", "sequence (Q15370 whole entry partner, looked up)": "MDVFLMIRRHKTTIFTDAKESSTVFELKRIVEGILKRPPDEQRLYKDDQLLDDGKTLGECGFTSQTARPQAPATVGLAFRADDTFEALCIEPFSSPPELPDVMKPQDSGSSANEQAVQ", "sequence (Q15369 whole entry partner, looked up)": "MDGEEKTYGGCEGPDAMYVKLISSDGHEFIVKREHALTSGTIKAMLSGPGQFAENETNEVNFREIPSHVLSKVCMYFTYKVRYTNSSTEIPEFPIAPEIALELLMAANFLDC", "experiment": "Measurement of intermolecular interactions using surface plasmon resonance (Biacore T200), Kd value for VHL", "assay_type": "binding", "settings": "not given", "text": "(§1) As the device, Biacore T200 (manufactured by GE Healthcare) was used. VHL was obtained by co-expressing Elongin B and Elongin C with a Twin-Strep-tag added to the N-terminus. As the sensor chip, Sensor chip CM5 (manufactured by GE Healthcare) was used. First, Strep-Tactin XT (manufactured by GE Healthcare) was immobilized on the sensor chip by amine coupling. Thereafter, VHL was immobilized using the affinity of Strep-Tactin XT and Twin-Strep-tag, and VHL was further immobilized on the sensor chip by amine coupling.\n(§2) As the running buffer, a mixed solution of 20 mM HEPES pH 7.5, 150 mM NaCl, 1 mM TCEP, 0.005% Tween 20, and 2% DMSO was used. […] The Contact time and the Dissociation time were determined according to the properties of the compounds. For many compounds, 60 seconds and 120 seconds were respectively used.", "units": {"Kd": "µM"}, "values": [{"molecule": "COc1cc(C(C(=O)N2C[C@H](O)C[C@H]2c2nc(C(=O)N3CCC(Nc4ccccc4)CC3)c[nH]2)C(C)C)on1", "note": "(stereo partly drawn) [Example 150, 1-[(2S,4R)-2-[4-(4-anilinopiperidine-1-carbonyl)-1H-imidazol-2-yl]-4-hydroxypyrrolidin-1-yl]-2-(3-methoxyisoxazol-5-yl)-3-methylbutan-1-one]", "Kd": "1 to 10"}]}, {"target": "VHL (co-expressed with Elongin B and Elongin C) (Homo sapiens (Human), UniProt P40337)", "experiment": "Measurement of intermolecular interactions using surface plasmon resonance (Biacore T200), Kd value for VHL", "assay_type": "binding", "settings": "SPR, immobilized VHL, 25° C.; read-out: Kd", "text": "as §1, §2", "units": {"Kd": "µM"}, "values": [{"molecule": "COc1cc(C(C(=O)N2C[C@H](O)C[C@H]2c2nccn2Cc2ccnc(-c3ccc(C(F)(F)F)cc3)c2)C(C)C)on1", "note": "(stereo partly drawn) [Example 102, 1-[(2S,4R)-4-hydroxy-2-[1-[[2-[4-(trifluoromethyl)phenyl]-4-pyridyl]methyl]imidazol-2-yl]pyrrolidin-1-yl]-2-(3-methoxyisoxazol-5-yl)-3-methylbutan-1-one]", "Kd": "10 to 50"}, {"molecule": "COc1cc(C(C(=O)N2C[C@H](O)C[C@H]2c2nc(C(=O)N3CC(c4ccccc4)C3)c[nH]2)C(C)C)on1", "note": "(stereo partly drawn) [Example 108, 1-[(2S,4R)-4-hydroxy-2-[4-(3-phenylazetidine-1-carbonyl)-1H-imidazol-2-yl]pyrrolidin-1-yl]-2-(3-methoxyisoxazol-5-yl)-3-methylbutan-1-one]", "Kd": "< 1"}, {"molecule": "COc1cc(C(C(=O)N2C[C@H](O)C[C@H]2c2nc(C(=O)N3CCC(c4ccccc4)C3)c[nH]2)C(C)C)on1", "note": "(stereo partly drawn) [Example 111, 1-[(2S,4R)-4-hydroxy-2-[4-(3-phenylpyrrolidine-1-carbonyl)-1H-imidazol-2-yl]pyrrolidin-1-yl]-2-(3-methoxyisoxazol-5-yl)-3-methylbutan-1-one]", "Kd": "< 1"}, {"molecule": "COc1cc(C(C(=O)N2C[C@H](O)C[C@H]2c2ncc[nH]2)C(C)C)on1", "note": "(stereo partly drawn) [Example 112, 1-[(2S,4R)-4-hydroxy-2-(1H-imidazol-2-yl)pyrrolidin-1-yl]-2-(3-methoxyisoxazol-5-yl)-3-methylbutan-1-one]", "Kd": "1 to 10"}, {"molecule": "COc1cc(C(C(=O)N2C[C@H](O)C[C@H]2c2nccn2Cc2cncc(-c3ccc(F)cc3)c2)C(C)C)on1", "note": "(stereo partly drawn) [Example 113, 1-[(2S,4R)-2-[1-[[5-(4-fluorophenyl)-3-pyridyl]methyl]imidazol-2-yl]-4-hydroxypyrrolidin-1-yl]-2-(3-methoxyisoxazol-5-yl)-3-methylbutan-1-one]", "Kd": "10 to 50"}, {"molecule": "COc1cc(C(C(=O)N2C[C@H](O)C[C@H]2c2nc(C(=O)N3CCC(c4ccncc4)CC3)c[nH]2)C(C)C)on1", "note": "(stereo partly drawn) [Example 139, 1-[(2S,4R)-4-hydroxy-2-[4-[4-(4-pyridyl)piperidine-1-carbonyl]-1H-imidazol-2-yl]pyrrolidin-1-yl]-2-(3-methoxyisoxazol-5-yl)-3-methylbutan-1-one]", "Kd": "1 to 10"}, {"molecule": "COc1cc(C(C(=O)N2C[C@H](O)C[C@H]2c2nc(C(=O)N3CCN(c4ccccc4)CC3)c[nH]2)C(C)C)on1", "note": "(stereo partly drawn) [Example 140, 1-[(2S,4R)-4-hydroxy-2-[4-(4-phenylpiperazine-1-carbonyl)-1H-imidazol-2-yl]pyrrolidin-1-yl]-2-(3-methoxyisoxazol-5-yl)-3-methylbutan-1-one]", "Kd": "1 to 10"}, {"molecule": "COc1cc(C(C(=O)N2C[C@H](O)C[C@H]2c2nc(C(=O)N3CCC(OCc4ccccc4)CC3)c[nH]2)C(C)C)on1", "note": "(stereo partly drawn) [Example 141, 1-[(2S,4R)-2-[4-(4-benzyloxypiperidine-1-carbonyl)-1H-imidazol-2-yl]-4-hydroxypyrrolidin-1-yl]-2-(3-methoxyisoxazol-5-yl)-3-methylbutan-1-one]", "Kd": "1 to 10"}, {"molecule": "COc1cc(C(C(=O)N2C[C@H](O)C[C@H]2c2nc(C(=O)N3CCC(c4ccc(C)cn4)CC3)c[nH]2)C(C)C)on1", "note": "(stereo partly drawn) [Example 144, 1-[(2S,4R)-4-hydroxy-2-[4-[4-(5-methyl-2-pyridyl)piperidine-1-carbonyl]-1H-imidazol-2-yl]pyrrolidin-1-yl]-2-(3-methoxyisoxazol-5-yl)-3-methylbutan-1-one]", "Kd": "1 to 10"}, {"molecule": "COc1cc(C(C(=O)N2C[C@H](O)C[C@H]2c2nc(C)cs2)C(C)C)on1", "note": "(stereo partly drawn) [Example 147, 1-[(2S,4R)-4-hydroxy-2-(4-methylthiazol-2-yl)pyrrolidin-1-yl]-2-(3-methoxyisoxazol-5-yl)-3-methylbutan-1-one]", "Kd": "10 to 50"}, {"molecule": "COc1cc(C(C(=O)N2C[C@H](O)C[C@H]2c2nc(C(=O)N3CCCC(C(=O)Nc4ccccc4)C3)c[nH]2)C(C)C)on1", "note": "(stereo partly drawn) [Example 148, 1-[2-[(2S,4R)-4-hydroxy-1-[2-(3-methoxyisoxazol-5-yl)-3-methylbutanoyl]pyrrolidin-2-yl]-1H-imidazole-4-carbonyl]-N-phenylpiperidine-3-carboxamide]", "Kd": "1 to 10"}, {"molecule": "COc1cc(C(C(=O)N2C[C@H](O)C[C@H]2c2nc(C(=O)N(C)Cc3ccc(-c4ccnc(C)c4)cc3)c[nH]2)C(C)C)on1", "note": "(stereo partly drawn) [Example 153, 2-[(2S,4R)-4-hydroxy-1-[2-(3-methoxyisoxazol-5-yl)-3-methylbutanoyl]pyrrolidin-2-yl]-N-methyl-N-[[4-(2-methyl-4-pyridyl)phenyl]methyl]-1H-imidazole-4-carboxamide]", "Kd": "< 1"}, {"molecule": "COc1cc(C(C(=O)N2C[C@H](O)C[C@H]2c2nc(C(=O)N(C)Cc3ccc(-c4ccc(C)nc4)cc3)c[nH]2)C(C)C)on1", "note": "(stereo partly drawn) [Example 154, 2-[(2S,4R)-4-hydroxy-1-[2-(3-methoxyisoxazol-5-yl)-3-methylbutanoyl]pyrrolidin-2-yl]-N-methyl-N-[[4-(6-methyl-3-pyridyl)phenyl]methyl]-1H-imidazole-4-carboxamide]", "Kd": "< 1"}, {"molecule": "COc1cc(C(C(=O)N2C[C@H](O)C[C@H]2c2nc(C(=O)N(C)CC3CCN(Cc4ccccc4F)CC3)c[nH]2)C(C)C)on1", "note": "(stereo partly drawn) [Example 155, N-[[1-[(2-fluorophenyl)methyl]-4-piperidyl]methyl]-2-[(2S,4R)-4-hydroxy-1-[2-(3-methoxyisoxazol-5-yl)-3-methylbutanoyl]pyrrolidin-2-yl]-N-methyl-1H-imidazole-4-carboxamide]", "Kd": "1 to 10"}, {"molecule": "COc1cc(C(C(=O)N2C[C@H](O)C[C@H]2c2nc(C(=O)N(C)CCNc3ccccc3)c[nH]2)C(C)C)on1", "note": "(stereo partly drawn) [Example 158, N-(2-anilinoethyl)-2-[(2S,4R)-4-hydroxy-1-[2-(3-methoxyisoxazol-5-yl)-3-methylbutanoyl]pyrrolidin-2-yl]-N-methyl-1H-imidazole-4-carboxamide]", "Kd": "< 1"}, {"molecule": "COc1cc(C(C(=O)N2C[C@H](O)C[C@H]2c2nc(C(=O)N(C)[C@H](C)C(=O)NCc3ccccc3)c[nH]2)C(C)C)on1", "note": "(stereo partly drawn) [Example 159, N-[(1R)-2-(benzylamino)-1-methyl-2-oxo-ethyl]-2-[(2S,4R)-4-hydroxy-1-[2-(3-methoxyisoxazol-5-yl)-3-methylbutanoyl]pyrrolidin-2-yl]-N-methyl-1H-imidazole-4-carboxamide]", "Kd": "< 1"}, {"molecule": "Cc1cc(-c2cnn(C(C(=O)N3C[C@H](O)C[C@H]3c3ncc[nH]3)C(C)C)c2)on1", "note": "(stereo partly drawn) [Example 160, 1-[(2S,4R)-4-hydroxy-2-(1H-imidazol-2-yl)pyrrolidin-1-yl]-3-methyl-2-[4-(3-methylisoxazol-5-yl)pyrazol-1-yl]butan-1-one]", "Kd": "10 to 50"}, {"molecule": "CCCc1nc(C(C(=O)N2C[C@H](O)C[C@H]2c2ncc[nH]2)C(C)C)no1", "note": "(stereo partly drawn) [Example 161, 1-[(2S,4R)-4-hydroxy-2-(1H-imidazol-2-yl)pyrrolidin-1-yl]-3-methyl-2-(5-propyl-1,2,4-oxadiazol-3-yl)butan-1-one]", "Kd": "10 to 50"}, {"molecule": "CCCc1nnc(C(C(=O)N2C[C@H](O)C[C@H]2c2ncc[nH]2)C(C)C)o1", "note": "(stereo partly drawn) [Example 162, 1-[(2S,4R)-4-hydroxy-2-(1H-imidazol-2-yl)pyrrolidin-1-yl]-3-methyl-2-(5-propyl-1,3,4-oxadiazol-2-yl) butan-1-one]", "Kd": "10 to 50"}]}]}
